Experiments:
Experiment in all cases: Test C preemergence, plant response rating
Type in all cases: in vivo
[1] = tested on: blackgrass (Alopecurus myosuroides); settings: Alopecurus myosuroides, pre-emergence, Preemergence
Method in brief: (§1)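 After sowing in loam–sand blend or silt loam, pots were sprayed preemergence; separately grown 1- to 4-leaf plants were sprayed postemergence. Following 13 to 15 d under greenhouse conditions, injury was rated visually on a 0 to 100 scale.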

[2] = tested on: corn (Zea mays); settings: Zea mays, pre-emergence, Preemergence
Method in brief: as §1

[3] = tested on: crabgrass, large (large crabgrass, Digitaria sanguinalis); settings: Digitaria sanguinalis, pre-emergence, Preemergence
Method in brief: as §1

[4] = tested on: foxtail, giant (giant foxtail, Setaria faberii); settings: Setaria faberi, pre-emergence, Preemergence
Method in brief: as §1

[5] = tested on: lambsquarters (Chenopodium album); settings: Chenopodium album, pre-emergence, Preemergence
Method in brief: as §1

[6] = tested on: morningglory (Ipomoea coccinea); settings: Ipomoea, pre-emergence, Preemergence
Method in brief: as §1

[7] = tested on: nutsedge, yellow (yellow nutsedge, Cyperus esculentus); settings: Cyperus, pre-emergence, Preemergence
Method in brief: as §1

[8] = tested on: oilseed rape (Brassica napus); settings: Brassica napus, pre-emergence, Preemergence
Method in brief: as §1

[9] = tested on: ryegrass, Italian (Italian ryegrass, Lolium multiflorum); settings: Lolium multiflorum, pre-emergence, Preemergence
Method in brief: as §1

[10] = tested on: soybean (Glycine max); settings: Glycine max, pre-emergence, Preemergence
Method in brief: as §1

[11] = tested on: velvetleaf (Abutilon theophrasti); settings: Abutilon theophrasti, pre-emergence, Preemergence
Method in brief: as §1

In the case of `O=C(OCCCC(F)(F)F)c1c(Br)cccc1Oc1ncc(Cl)cn1` [Compound 20, 4,4,4-trifluorobutyl 2-bromo-6-[(5-chloro-2-pyrimidinyl)oxy]benzoate], the pest or weed control at 62 g/ha ([1]; 62 g ai/ha, scale of 0 to 100) is reported as 85%, the pest or weed control at 125 g/ha ([1]; 125 g ai/ha, scale of 0 to 100) is reported as 100% and the pest or weed control at 16 g/ha ([1]; 16 g ai/ha, scale 0 to 100) is reported as 0%. It also gave a pest or weed control at 31 g/ha ([1]; 31 g ai/ha, scale 0 to 100) of 40%, a Corn plant response rating (crop injury, 0 = no effect, 100 = complete kill) at 62 g/ha ([2]; 62 g ai/ha, scale of 0 to 100) of 0% and a Corn plant response rating (crop injury, 0 = no effect, 100 = complete kill) at 125 g/ha ([2]; 125 g ai/ha, scale of 0 to 100) of 30%. It also gave a Corn plant response rating (crop injury, 0 = no effect, 100 = complete kill) at 16 g/ha ([2]; 16 g ai/ha, scale 0 to 100) of 0%, a Corn plant response rating (crop injury, 0 = no effect, 100 = complete kill) at 31 g/ha ([2]; 31 g ai/ha, scale 0 to 100) of 0% and a pest or weed control at 62 g/ha ([3]; 62 g ai/ha, scale of 0 to 100) of 98%. For the same molecule, the pest or weed control at 125 g/ha ([3]; 125 g ai/ha, scale of 0 to 100) was 100%, the pest or weed control at 16 g/ha ([3]; 16 g ai/ha, scale 0 to 100) was 5% and the pest or weed control at 31 g/ha ([3]; 31 g ai/ha, scale 0 to 100) was 50%. For the same molecule, the pest or weed control at 62 g/ha ([4]; 62 g ai/ha, scale of 0 to 100) was 90%, the pest or weed control at 125 g/ha ([4]; 125 g ai/ha, scale of 0 to 100) was 100% and the pest or weed control at 16 g/ha ([4]; 16 g ai/ha, scale 0 to 100) was 35%. For the same molecule, the pest or weed control at 31 g/ha ([4]; 31 g ai/ha, scale 0 to 100) was 50%, the pest or weed control at 125 g/ha ([5]; 125 g ai/ha, scale of 0 to 100) was 90% and the pest or weed control at 16 g/ha ([5]; 16 g ai/ha, scale 0 to 100) was 0%. The pest or weed control at 31 g/ha ([5]; 31 g ai/ha, scale 0 to 100) was 5%, the pest or weed control at 62 g/ha ([5]; 62 g ai/ha, scale 0 to 100) was 10% and the pest or weed control at 125 g/ha ([6]; 125 g ai/ha, scale of 0 to 100) was 10%. The pest or weed control at 16 g/ha ([6]; 16 g ai/ha, scale 0 to 100) was 0%, the pest or weed control at 31 g/ha ([6]; 31 g ai/ha, scale 0 to 100) was 0% and the pest or weed control at 62 g/ha ([6]; 62 g ai/ha, scale 0 to 100) was 5%. The pest or weed control at 125 g/ha ([7]; 125 g ai/ha, scale of 0 to 100) was 10%, the pest or weed control at 16 g/ha ([7]; 16 g ai/ha, scale 0 to 100) was 0% and the pest or weed control at 31 g/ha ([7]; 31 g ai/ha, scale 0 to 100) was 0%. For the same molecule, the pest or weed control at 62 g/ha ([7]; 62 g ai/ha, scale 0 to 100) was 0%, the plant injury at 125 g/ha ([8]; 125 g ai/ha, scale of 0 to 100) was 50% and the plant injury at 16 g/ha ([8]; 16 g ai/ha, scale 0 to 100) was 0%. The plant injury at 31 g/ha ([8]; 31 g ai/ha, scale 0 to 100) was 0%, the plant injury at 62 g/ha ([8]; 62 g ai/ha, scale 0 to 100) was 50% and the pest or weed control at 125 g/ha ([9]; 125 g ai/ha, scale of 0 to 100) was 70%. It also gave a pest or weed control at 16 g/ha ([9]; 16 g ai/ha, scale 0 to 100) of 0%, a pest or weed control at 31 g/ha ([9]; 31 g ai/ha, scale 0 to 100) of 0% and a pest or weed control at 62 g/ha ([9]; 62 g ai/ha, scale 0 to 100) of 30%. It also gave a plant injury at 125 g/ha ([10]; 125 g ai/ha, scale of 0 to 100) of 10%, a plant injury at 16 g/ha ([10]; 16 g ai/ha, scale 0 to 100) of 0% and a plant injury at 31 g/ha ([10]; 31 g ai/ha, scale 0 to 100) of 0%. For the same molecule, the plant injury at 62 g/ha ([10]; 62 g ai/ha, scale 0 to 100) was 0%, the pest or weed control at 125 g/ha ([11]; 125 g ai/ha, scale of 0 to 100) was 50% and the pest or weed control at 16 g/ha ([11]; 16 g ai/ha, scale 0 to 100) was 0%.

Reference: patent publication US11053204B2, “Pyrimidinyloxy benzene derivatives as herbicides” (FMC Corporation, priority 2015, dated 2021)
